{
  "source": "patent US10167262B2",
  "about": "“Herbicidal substituted 3-arylpyrazoles” (FMC CORPORATION, priority 2014, dated 2019)",
  "type_in_all_cases": "in vivo",
  "key": {"[1]": {"test_system": "large (Lg) crabgrass (Digitaria sanguinalis)", "assay": "Test E pre-/postemergence greenhouse test, plant response rating 0-100", "settings": "Preemergence, scale 0 to 100"}, "[2]": {"test_system": "morningglory (Ipomoea coccinea)", "assay": "Test E pre-/postemergence greenhouse test, plant response rating 0-100", "settings": "Preemergence, scale 0 to 100"}, "[3]": {"test_system": "green foxtail (Setaria viridis)", "assay": "Test E pre-/postemergence greenhouse test, plant response rating 0-100", "settings": "Preemergence, scale 0 to 100"}, "[4]": {"test_system": "goosegrass (Eleusine indica)", "assay": "Test E pre-/postemergence greenhouse test, plant response rating 0-100", "settings": "Preemergence, scale 0 to 100"}, "[5]": {"test_system": "yellow nutsedge (Cyperus esculentus)", "assay": "Test E pre-/postemergence greenhouse test, plant response rating 0-100", "settings": "Preemergence, scale 0 to 100"}, "[6]": {"test_system": "fall panicum (Panicum dichotomiflorum)", "assay": "Test E pre-/postemergence greenhouse test, plant response rating 0-100", "settings": "scale 0 to 100; for Panicum, Fall plant response rating: Preemergence", "summary_of_the_method": "(§1)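 Each species was tested both preemergence, with chemicals sprayed onto freshly planted silt loam, and postemergence, on plants 2 to 18 cm tall in a peat-based medium; the vehicle was a non-phytotoxic solvent mixture with surfactant. After 14 to 21 days in the greenhouse, growth was visually compared with controls and scored 0–100.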"}, "[7]": {"test_system": "ragweed (common ragweed, Ambrosia elatior)", "assay": "Test E pre-/postemergence greenhouse test, plant response rating 0-100", "settings": "Preemergence, scale 0 to 100", "summary_of_the_method": "as §1"}, "[8]": {"test_system": "velvetleaf (Abutilon theophrasti)", "assay": "Test E pre-/postemergence greenhouse test, plant response rating 0-100", "settings": "Preemergence, scale 0 to 100", "summary_of_the_method": "as §1"}, "[9]": {"test_system": "surinam grass (Brachiaria decumbens)", "assay": "Test E pre-/postemergence greenhouse test, plant response rating 0-100", "settings": "Preemergence, scale 0 to 100", "summary_of_the_method": "as §1"}, "[10]": {"test_system": "field bindweed (Convolvulus arvensis)", "assay": "Test E pre-/postemergence greenhouse test, plant response rating 0-100", "settings": "scale 0 to 100; for Field Bindweed plant response rating: Preemergence", "summary_of_the_method": "as §1"}, "[11]": {"test_system": "lambsquarters (Chenopodium album)", "assay": "Test E pre-/postemergence greenhouse test, plant response rating 0-100", "settings": "Preemergence, scale 0 to 100", "summary_of_the_method": "as §1"}, "kochia (Kochia scoparia)": {"test_system": "kochia (Kochia scoparia)", "assay": "Test E pre-/postemergence greenhouse test, plant response rating 0-100", "settings": "Preemergence, scale 0 to 100", "summary_of_the_method": "as §1"}, "[12]": {"test_system": "nightshade (eastern black nightshade, Solanum ptycanthum)", "assay": "Test E pre-/postemergence greenhouse test, plant response rating 0-100", "settings": "Preemergence, scale 0 to 100", "summary_of_the_method": "as §1"}, "[13]": {"test_system": "giant foxtail (Setaria faberii)", "assay": "Test E pre-/postemergence greenhouse test, plant response rating 0-100", "settings": "Preemergence, scale 0 to 100"}, "[14]": {"test_system": "waterhemp_RES1, (ALS & Triazine resistant common waterhemp, Amaranthus rudis)", "assay": "Test E postemergence greenhouse test, plant response rating 0-100", "settings": "scale 0 to 100", "summary_of_the_method": "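Visual ratings, 0 (no effect) to 100 (complete control), made versus controls 14–21 days after postemergence application in the greenhouse. Plants were at 1- to 4-leaf stage (2–18 cm) in peat moss/vermiculite potting medium.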"}, "[15]": {"test_system": "johnsongrass (Sorghum halepense)", "assay": "Test E pre-/postemergence greenhouse test, plant response rating 0-100", "settings": "Preemergence, scale 0 to 100"}},
  "data": [
    {"smiles": "C#CCn1cc(C(=O)c2ccccc2)c(-c2cc(Cl)cc(Cl)c2)n1", "note": "[Compound 39, [3-(3,5-dichlorophenyl)-1-(2-propyn-1-yl)-1H-pyrazol-4-yl]phenylmethanone]", "values": [
      {"measurement": "Crabgrass, Large plant response rating", "setting": "[1]; 62 g ai/ha", "value": 0},
      {"measurement": "Crabgrass, Large plant response rating", "setting": "[1]; 125 g ai/ha", "value": 0},
      {"measurement": "Crabgrass, Large plant response rating", "setting": "[1]; 250 g ai/ha", "value": 0},
      {"measurement": "Crabgrass, Large plant response rating", "setting": "[1]; 500 g ai/ha", "value": 0},
      {"measurement": "Morningglory plant response rating", "setting": "[2]; 62 g ai/ha", "value": 0},
      {"measurement": "Morningglory plant response rating", "setting": "[2]; 125 g ai/ha", "value": 0},
      {"measurement": "Morningglory plant response rating", "setting": "[2]; 250 g ai/ha", "value": 0},
      {"measurement": "Morningglory plant response rating", "setting": "[2]; 500 g ai/ha", "value": 0},
      {"measurement": "Foxtail, Green plant response rating", "setting": "[3]; 62 g ai/ha", "value": 0},
      {"measurement": "Foxtail, Green plant response rating", "setting": "[3]; 125 g ai/ha", "value": 0},
      {"measurement": "Foxtail, Green plant response rating", "setting": "[3]; 250 g ai/ha", "value": 0},
      {"measurement": "Foxtail, Green plant response rating", "setting": "[3]; 500 g ai/ha", "value": 0},
      {"measurement": "Goosegrass plant response rating", "setting": "[4]; 62 g ai/ha", "value": 0},
      {"measurement": "Goosegrass plant response rating", "setting": "[4]; 125 g ai/ha", "value": 0},
      {"measurement": "Goosegrass plant response rating", "setting": "[4]; 250 g ai/ha", "value": 0},
      {"measurement": "Goosegrass plant response rating", "setting": "[4]; 500 g ai/ha", "value": 0},
      {"measurement": "Nutsedge, Yellow plant response rating", "setting": "[5]; 62 g ai/ha", "value": 0},
      {"measurement": "Nutsedge, Yellow plant response rating", "setting": "[5]; 125 g ai/ha", "value": 0},
      {"measurement": "Nutsedge, Yellow plant response rating", "setting": "[5]; 250 g ai/ha", "value": 0},
      {"measurement": "Nutsedge, Yellow plant response rating", "setting": "[5]; 500 g ai/ha", "value": 0},
      {"measurement": "pest or weed control at 31 g/ha", "setting": "[6]; Panicum dichotomiflorum, post-emergence, Postemergence, 31 g ai/ha", "value": 0, "unit": "%"},
      {"measurement": "pest or weed control at 62 g/ha", "setting": "[6]; Panicum dichotomiflorum, post-emergence, Postemergence, 62 g ai/ha", "value": 0, "unit": "%"},
      {"measurement": "pest or weed control at 125 g/ha", "setting": "[6]; Panicum dichotomiflorum, post-emergence, Postemergence, 125 g ai/ha", "value": 0, "unit": "%"},
      {"measurement": "pest or weed control at 250 g/ha", "setting": "[6]; Panicum dichotomiflorum, post-emergence, Postemergence, 250 g ai/ha", "value": 0, "unit": "%"},
      {"measurement": "pest or weed control at 500 g/ha", "setting": "[6]; Panicum dichotomiflorum, post-emergence, Postemergence, 500 g ai/ha", "value": 0, "unit": "%"},
      {"measurement": "Panicum, Fall plant response rating", "setting": "[6]; 62 g ai/ha", "value": 0},
      {"measurement": "Panicum, Fall plant response rating", "setting": "[6]; 250 g ai/ha", "value": 0},
      {"measurement": "Ragweed plant response rating", "setting": "[7]; 62 g ai/ha", "value": 60},
      {"measurement": "Ragweed plant response rating", "setting": "[7]; 125 g ai/ha", "value": 0},
      {"measurement": "Ragweed plant response rating", "setting": "[7]; 250 g ai/ha", "value": 65},
      {"measurement": "Ragweed plant response rating", "setting": "[7]; 500 g ai/ha", "value": 30},
      {"measurement": "Velvetleaf plant response rating", "setting": "[8]; 62 g ai/ha", "value": 15},
      {"measurement": "Velvetleaf plant response rating", "setting": "[8]; 125 g ai/ha", "value": 75},
      {"measurement": "Velvetleaf plant response rating", "setting": "[8]; 250 g ai/ha", "value": 90},
      {"measurement": "Velvetleaf plant response rating", "setting": "[8]; 500 g ai/ha", "value": 100},
      {"measurement": "Surinam Grass plant response rating", "setting": "[9]; 62 g ai/ha", "value": 0},
      {"measurement": "Surinam Grass plant response rating", "setting": "[9]; 125 g ai/ha", "value": 0},
      {"measurement": "Surinam Grass plant response rating", "setting": "[9]; 250 g ai/ha", "value": 0},
      {"measurement": "Surinam Grass plant response rating", "setting": "[9]; 500 g ai/ha", "value": 0},
      {"measurement": "pest or weed control at 31 g/ha", "setting": "[10]; Convolvulus arvensis, post-emergence, Postemergence, 31 g ai/ha", "value": 0, "unit": "%"},
      {"measurement": "pest or weed control at 62 g/ha", "setting": "[10]; Convolvulus arvensis, post-emergence, Postemergence, 62 g ai/ha", "value": 0, "unit": "%"},
      {"measurement": "pest or weed control at 125 g/ha", "setting": "[10]; Convolvulus arvensis, post-emergence, Postemergence, 125 g ai/ha", "value": 0, "unit": "%"},
      {"measurement": "pest or weed control at 250 g/ha", "setting": "[10]; Convolvulus arvensis, post-emergence, Postemergence, 250 g ai/ha", "value": 10, "unit": "%"},
      {"measurement": "pest or weed control at 500 g/ha", "setting": "[10]; Convolvulus arvensis, post-emergence, Postemergence, 500 g ai/ha", "value": 10, "unit": "%"},
      {"measurement": "Field Bindweed plant response rating", "setting": "[10]; 62 g ai/ha", "value": 0},
      {"measurement": "Field Bindweed plant response rating", "setting": "[10]; 125 g ai/ha", "value": 0},
      {"measurement": "Field Bindweed plant response rating", "setting": "[10]; 250 g ai/ha", "value": 0},
      {"measurement": "Field Bindweed plant response rating", "setting": "[10]; 500 g ai/ha", "value": 0},
      {"measurement": "Lambsquarters plant response rating", "setting": "[11]; 62 g ai/ha", "value": 90},
      {"measurement": "Lambsquarters plant response rating", "setting": "[11]; 125 g ai/ha", "value": 95},
      {"measurement": "Lambsquarters plant response rating", "setting": "[11]; 250 g ai/ha", "value": 90},
      {"measurement": "Lambsquarters plant response rating", "setting": "[11]; 500 g ai/ha", "value": 100},
      {"measurement": "Kochia plant response rating", "setting": "kochia (Kochia scoparia); 62 g ai/ha", "value": 0},
      {"measurement": "Kochia plant response rating", "setting": "kochia (Kochia scoparia); 125 g ai/ha", "value": 30},
      {"measurement": "Kochia plant response rating", "setting": "kochia (Kochia scoparia); 250 g ai/ha", "value": 65},
      {"measurement": "Kochia plant response rating", "setting": "kochia (Kochia scoparia); 500 g ai/ha", "value": 75},
      {"measurement": "Nightshade plant response rating", "setting": "[12]; 62 g ai/ha", "value": 0},
      {"measurement": "Nightshade plant response rating", "setting": "[12]; 125 g ai/ha", "value": 0},
      {"measurement": "Nightshade plant response rating", "setting": "[12]; 250 g ai/ha", "value": 100},
      {"measurement": "Nightshade plant response rating", "setting": "[12]; 500 g ai/ha", "value": 95},
      {"measurement": "Foxtail, Giant plant response rating", "setting": "[13]; 62 g ai/ha", "value": 0},
      {"measurement": "Foxtail, Giant plant response rating", "setting": "[13]; 125 g ai/ha", "value": 0},
      {"measurement": "Foxtail, Giant plant response rating", "setting": "[13]; 250 g ai/ha", "value": 0},
      {"measurement": "Foxtail, Giant plant response rating", "setting": "[13]; 500 g ai/ha", "value": 0},
      {"measurement": "Plant response rating, Waterhemp_RES1", "setting": "[14]; 31 g ai/ha", "value": 85},
      {"measurement": "Plant response rating, Waterhemp_RES1", "setting": "[14]; 62 g ai/ha", "value": 85},
      {"measurement": "Plant response rating, Waterhemp_RES1", "setting": "[14]; 125 g ai/ha", "value": 90},
      {"measurement": "Plant response rating, Waterhemp_RES1", "setting": "[14]; 250 g ai/ha", "value": 90},
      {"measurement": "Plant response rating, Waterhemp_RES1", "setting": "[14]; 500 g ai/ha", "value": 95},
      {"measurement": "Johnsongrass plant response rating", "setting": "[15]; 62 g ai/ha", "value": 0},
      {"measurement": "Johnsongrass plant response rating", "setting": "[15]; 125 g ai/ha", "value": 0},
      {"measurement": "Johnsongrass plant response rating", "setting": "[15]; 250 g ai/ha", "value": 0},
      {"measurement": "Johnsongrass plant response rating", "setting": "[15]; 500 g ai/ha", "value": 0}
    ]}
  ]
}
